Data published in PubChem BioAssay (NCI).
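Cultured in 96-well plates, cells were exposed to test compound for 48 hours across five concentrations. GI50 = concentration required for 50% inhibition of growth. TGI denotes the concentration required for complete inhibition of growth.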

Key:
Assay in all cases: inhibition of tumour cell growth, NCI panel, 48 h
[1] = tested on: 786-0 renal
[2] = tested on: CCRF-CEM leukemia
[3] = tested on: HL-60(TB) leukemia
[4] = tested on: HOP-18 NSCLC
[5] = tested on: MOLT-4 leukemia
[6] = tested on: OVCAR-5 ovarian
[7] = tested on: TK-10 renal
[8] = tested on: U251 CNS
[9] = tested on: BT-549 breast

Row | SMILES | TGI [1] [µM] | TGI [2] [µM] | TGI [3] [µM] | TGI [4] [µM] | TGI [5] [µM] | TGI [6] [µM] | TGI [7] [µM] | TGI [8] [µM] | GI50 [1] [µM] | GI50 [2] [µM] | GI50 [3] [µM] | GI50 [4] [µM] | GI50 [5] [µM] | GI50 [6] [µM] | GI50 [7] [µM] | GI50 [8] [µM] | GI50 [9] [µM] | TGI [9] [µM]
1 | Cc1c(Cl)cccc1NC(=O)C(=O)C1C(=O)NC(=O)NC1=O | > 100 | > 100 | > 100 | > 100 | > 100 | > 100 | > 100 | > 100 | – | – | – | – | – | – | – | – | – | –
2 | CC(CN(CP(=O)([O-])[O-])CP(=O)([O-])[O-])N(CP(=O)([O-])[O-])CP(=O)([O-])[O-].N[C@@H]1CCCC[C@@H]1N.[Pt+2] (stereo not given) | > 100 | > 100 | > 100 | > 100 | > 100 | > 100 | > 100 | > 100 | > 100 | > 100 | > 100 | > 100 | > 100 | > 100 | > 100 | > 100 | – | –
3 | CSC(=S)N/N=C(\C)c1ccccn1 | 12.5 | 1.68 | 0.18 | – | 0.975 | 22.2 | 24.2 | 13.6 | 0.315 | < 0.01 | < 0.0453 | – | < 0.0145 | 0.143 | 0.527 | 0.199 | 0.44 | 14.8
4 | Cc1nc2cc(O)c(O)cc2cc1Oc1ccc(NC(=O)Nc2ccc(Cl)c(Cl)c2)cc1 | 18.6 | 21.8 | 22.4 | – | > 32.5 | 29.3 | > 32.5 | > 32.5 | 7.68 | 6.19 | 9.02 | – | 8.87 | 11.6 | 14.2 | 6.58 | 7.5 | > 32.5
5 | COc1ccc(C2CC(c3cc(OC)c(OC)c(OC)c3)=NN2)cc1 (stereo not given) | > 100 | > 100 | 12 | – | 25 | > 100 | > 100 | > 100 | 20.7 | 6.34 | 2.19 | – | 4.76 | 49.3 | 42 | 4.52 | 8.02 | > 100
6 | COC(=O)c1oc2c(C(=O)/C=C/c3ccc(OC)cc3)c(OCCCN3CCCCC3)ccc2c1C | 3.11 | 3.4 | 2.7 | – | 4.97 | 6.17 | 5.71 | 2.88 | 1.49 | 0.783 | 0.872 | – | 1.6 | 2.31 | 2.04 | 1.49 | 2.89 | 9.11
7 | COC(=O)c1ccc2c(c1)nc(-c1ccc(Cl)cc1)n2-c1cc(C(C)(C)C)[nH]n1 | 32 | > 100 | 19 | – | > 100 | 60.1 | > 100 | 22.7 | 3.62 | 4.91 | 4.03 | – | 5.48 | 12.9 | 6.94 | 4.13 | 3.35 | 11.5
8 | Fc1ccc(Nc2nc(Nc3ccc(-c4nc5ccccc5[nH]4)cc3)nc(N3CCCC3)n2)cc1 | 3.35 | 10.4 | 6.61 | – | 5.74 | 8.19 | 31.3 | 5.82 | 1.8 | 2.98 | 2.64 | – | 2.19 | 2.93 | 17.1 | 2.37 | 6.9 | 20.7
9 | N#Cc1c2ccccc2c2nnc3cc(Cl)c(Cl)cc3n12 | > 100 | > 100 | 70.2 | – | > 100 | > 100 | > 100 | > 100 | > 100 | 85.4 | 22.6 | – | 27.4 | > 100 | > 100 | 50.7 | 60.9 | > 100
10 | C=C1C(=O)O[C@H]2[C@H]1CC/C(COC(=O)CCC(=O)OC/C1=C/CC[C@@]3(C)O[C@H]3[C@H]3OC(=O)C(=C)[C@@H]3CC1)=C\CC[C@@]1(C)O[C@@H]21 | 3.12 | 0.778 | 0.812 | – | 2.8 | 6.03 | 3.38 | 9.18 | 1.46 | 0.251 | 0.233 | – | 0.561 | 2.13 | 1.75 | 2.78 | 1.4 | 2.83
11 | O=C(/C=N/O)c1c(-c2ccccc2)[nH]c(-c2ccccc2)c1-c1ccccc1 | > 100 | > 100 | > 100 | – | 31.1 | 21.7 | 40.8 | 32.3 | – | – | – | – | – | – | – | – | – | 11.3
12 | CC1=C(C)C(=O)C(C(C)C2=C(C)C(=O)C(C)=C(C)C2=O)=C(C)C1=O | > 100 | 50.7 | 24.5 | – | 27.6 | > 100 | > 100 | > 100 | 50.8 | 20.1 | 6.94 | – | 8.88 | 47 | 90.6 | 21.7 | 45.1 | > 100
13 | Nc1nc(Cl)nc2c1ncn2C1O[C@H](CO)[C@@H](O)[C@@H]1F (stereo not given in full) | 0.486 | > 100 | 0.14 | – | – | > 100 | > 100 | > 100 | 0.092 | 0.0281 | 0.0305 | – | 0.033 | 3 | – | 0.442 | 0.091 | 0.702
14 | C=C1C(=O)O[C@H]2[C@H]1CC/C(Cn1cc(CCC)nn1)=C\CC[C@@]1(C)O[C@@H]21 | 25.5 | 9.71 | 15.3 | – | 27.6 | 29.5 | 14.6 | 27.7 | 11.3 | 3 | 3.53 | – | 5.54 | 14.1 | 3.86 | 14.1 | 14.2 | 28.6
15 | CC(C)(C)c1ccc(-c2nnc(SCc3ccc(Cl)cc3)n2-c2cccc(C(F)(F)F)c2)cc1 | > 100 | > 100 | 14.6 | – | > 67.1 | > 96.1 | > 100 | > 100 | – | – | – | – | – | – | – | – | – | > 100
16 | COc1ccc(/C=C(/C(=O)N2CCNCC2)c2cc(OC)c(OC)c(OC)c2)cc1O | > 100 | > 100 | 5.5 | – | > 100 | > 100 | > 100 | > 100 | 33.1 | 3.23 | 1.87 | – | 3.94 | 6.21 | 79.4 | 3.29 | 4.22 | 48.4
